The results in this text go back to US11072616B2, “Cyclic peptides targeting alpha-4-beta-7 integrin” (Zealand Pharma A/S, priority 2015, dated 2021).

The target in this assay is T1, integrin α4β7 (Homo sapiens, UniProt P13612+P26010).
T1 sequence (P13612 34-977 limits assumed): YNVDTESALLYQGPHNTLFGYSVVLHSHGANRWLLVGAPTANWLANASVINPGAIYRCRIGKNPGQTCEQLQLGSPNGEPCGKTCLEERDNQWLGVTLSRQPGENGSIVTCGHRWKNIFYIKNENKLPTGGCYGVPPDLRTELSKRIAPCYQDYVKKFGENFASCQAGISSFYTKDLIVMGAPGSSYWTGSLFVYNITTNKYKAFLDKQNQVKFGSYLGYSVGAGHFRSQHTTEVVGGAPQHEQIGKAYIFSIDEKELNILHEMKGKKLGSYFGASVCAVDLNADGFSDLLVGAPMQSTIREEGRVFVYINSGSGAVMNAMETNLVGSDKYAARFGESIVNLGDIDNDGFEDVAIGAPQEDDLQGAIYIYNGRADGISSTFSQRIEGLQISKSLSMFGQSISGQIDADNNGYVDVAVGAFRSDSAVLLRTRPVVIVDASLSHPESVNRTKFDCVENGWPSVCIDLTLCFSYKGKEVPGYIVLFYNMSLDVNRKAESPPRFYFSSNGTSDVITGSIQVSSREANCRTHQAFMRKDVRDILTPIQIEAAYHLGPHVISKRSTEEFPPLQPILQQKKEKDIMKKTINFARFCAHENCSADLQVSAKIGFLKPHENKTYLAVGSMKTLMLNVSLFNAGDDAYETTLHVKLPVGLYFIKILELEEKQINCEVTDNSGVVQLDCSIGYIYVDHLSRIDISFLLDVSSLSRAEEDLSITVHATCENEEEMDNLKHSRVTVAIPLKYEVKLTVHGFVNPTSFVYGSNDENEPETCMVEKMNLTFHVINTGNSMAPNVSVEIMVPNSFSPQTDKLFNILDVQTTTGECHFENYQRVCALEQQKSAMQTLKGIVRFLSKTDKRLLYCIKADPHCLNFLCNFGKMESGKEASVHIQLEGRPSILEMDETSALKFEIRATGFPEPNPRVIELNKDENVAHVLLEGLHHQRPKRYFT
T1 sequence (P26010 20-723 limits assumed): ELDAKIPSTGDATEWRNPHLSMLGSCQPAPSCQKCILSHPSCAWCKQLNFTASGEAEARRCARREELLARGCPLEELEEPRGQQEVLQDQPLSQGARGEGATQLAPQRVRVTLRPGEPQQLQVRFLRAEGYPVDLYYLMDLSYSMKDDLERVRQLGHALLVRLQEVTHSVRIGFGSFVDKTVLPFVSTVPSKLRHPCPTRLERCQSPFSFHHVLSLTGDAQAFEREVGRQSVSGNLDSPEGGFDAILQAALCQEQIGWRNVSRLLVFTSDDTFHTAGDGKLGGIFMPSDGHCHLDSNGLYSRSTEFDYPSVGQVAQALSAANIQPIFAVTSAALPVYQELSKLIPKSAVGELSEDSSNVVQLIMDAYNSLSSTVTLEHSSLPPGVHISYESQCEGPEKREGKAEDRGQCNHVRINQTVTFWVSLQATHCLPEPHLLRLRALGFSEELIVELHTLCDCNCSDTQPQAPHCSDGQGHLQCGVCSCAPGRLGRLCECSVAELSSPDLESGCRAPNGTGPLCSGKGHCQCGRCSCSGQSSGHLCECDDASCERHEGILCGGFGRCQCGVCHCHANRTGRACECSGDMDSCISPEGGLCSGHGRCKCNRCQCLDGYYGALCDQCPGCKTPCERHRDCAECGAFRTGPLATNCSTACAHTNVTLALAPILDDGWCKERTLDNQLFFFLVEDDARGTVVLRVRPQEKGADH
The assay can be described thus: Integrin α4β7—MAdCAM-1 competition assay (ELISA). The following applies: ratio a4b1 ELISA IC50 / a4b7 ELISA IC50. Format: binding. The method, then: Integrin α4β7—MAdCAM-1 Competition Assay
The plate was incubated at 4° C. overnight. […] The plate was then incubated for 1 hour at room temperature. The plate was washed three times with wash buffer (50 mM Tris, 100 mM NaCl, 1 mM MnCl2, 0.05% Tween). To each well, 50 μl of compound diluted in assay buffer was added by transfer from a compound serial dilution plate. […] The plate was incubated at room temperature with shaking for 2 hours to reach binding equilibrium. Then the plate was washed three times in wash buffer and 100 μl anti-human IgG Fc specific-horseradish peroxidase (HRP) (Abcam, Ab97225) diluted at 1:2000 in assay buffer was added to each well. The plate was incubated at room temperature for 1 hour under agitation. The plates were then washed three times and 100 μl of 1,3′,5,5′-tetramethylbenxidie (TMB) was then added to each well.
In general terms: ELISA stands for enzyme-linked immunosorbent assay.

In the case of `C=CCOc1ccc(C[C@@H]2NC(=O)[C@@H]3CCCN3[C@H](C(=O)NC(C)(C)C)[C@H](C)NC(=O)[C@H]([C@@H](C)O)NC(=O)[C@H](CC(=O)O)NC(=O)[C@H](CC(C)C)NC(=O)CNC2=O)cc1` [Compound 163], the “Selectivity ELISA” value is 11.0. In the case of `CCC[C@@H]1NC(=O)[C@@H]2CCCN2[C@H](C(=O)NC(C)(C)C)[C@H](C)NC(=O)[C@H]([C@@H](C)O)NC(=O)[C@H](CC(=O)O)NC(=O)[C@H](CC(C)C)NC1=O` [Compound 71] it was 4.4. In the case of `CC(C)C[C@@H]1NC(=O)C2(CCCC2)NC(=O)[C@H](Cc2ccc(O)cc2)NC(=O)[C@@H]2CCCN2[C@H](C(=O)NC(C)(C)C)[C@H](C)NC(=O)[C@H]([C@@H](C)O)NC(=O)[C@H](CC(=O)O)NC1=O` [Compound 104] it was 4.2. Consider `CC(C)C[C@@H]1NC(=O)c2ccc(-c3cccc(CN)c3)c(c2)CNC(=O)[C@H](Cc2ccc(O)cc2)NC(=O)[C@@H]2CCCN2[C@H](C(=O)NC(C)(C)C)[C@H](C)NC(=O)[C@H]([C@@H](C)O)NC(=O)[C@H](CC(=O)O)NC1=O` [Compound 339], for which the “Selectivity ELISA” value came out at 5.8. In the case of `CO[C@H](C)[C@@H]1NC(=O)[C@H](CC(=O)O)NC(=O)[C@H](CC(C)C)NC(=O)[C@H](Cc2ccccc2)NC(=O)[C@@H]2CCCN2[C@H](C(=O)NC(C)(C)C)[C@H](C)NC1=O` [Compound 40] it was 1.9; in that of `CC(C)C[C@@H]1NC(=O)[C@H]2CCCN2C(=O)[C@H](Cc2cc(Br)c(O)c(Br)c2)NC(=O)[C@@H]2CCCN2[C@H](C(=O)NC(C)(C)C)[C@H](C)NC(=O)[C@H]([C@@H](C)O)NC(=O)[C@H](CC(=O)O)NC1=O` [Compound 129], 9.7. Next, `CC(C)C[C@@H]1NC(=O)[C@H]2CCCCN2C(=O)[C@H](Cc2cscn2)NC(=O)[C@@H]2CCCN2[C@H](C(=O)NC(C)(C)C)[C@H](C)NC(=O)[C@H]([C@@H](C)O)NC(=O)[C@H](CC(=O)O)NC1=O` [Compound 131]: 3.1; `CC[C@H](C)[C@@H]1NC(=O)[C@H](CC(=O)O)NC(=O)[C@H](CC(C)C)NC(=O)C[C@H](CCCCN)NC(=O)[C@H](Cc2ccc(CN)cc2)NC(=O)[C@@H]2CCCN2[C@H](C(=O)NC(C)(C)C)[C@H](C)NC1=O` [Compound 215]: 12.4. In the case of `CC(C)C[C@@H]1NC(=O)C[C@H](CCCCN)NC(=O)[C@H](Cc2ccc(I)cc2)NC(=O)[C@@H]2CCCN2[C@H](C(=O)NC(C)(C)C)[C@H](C)NC(=O)[C@H]([C@@H](C)O)NC(=O)[C@H](CC(=O)O)NC1=O` [Compound 260] it was 58.1; in that of `CC(C)C[C@@H]1NC(=O)c2ccc(-c3cccc4ncccc34)c(c2)CNC(=O)[C@@H]2CCCN2[C@H](C(=O)NC(C)(C)C)[C@H](C)NC(=O)[C@H]([C@@H](C)O)NC(=O)[C@H](CC(=O)O)NC1=O` [Compound 347], 1.3; in that of `CC(C)C[C@@H]1NC(=O)CN(C)C(=O)[C@H](Cc2ccc(-c3ccccc3)cc2)NC(=O)[C@@H]2CCCN2[C@H](C(=O)NC(C)(C)C)[C@H](C)NC(=O)[C@H]([C@@H](C)O)NC(=O)[C@H](CC(=O)O)NC1=O` [Compound 116], 8.4.

In the case of `CC(C)C[C@@H]1NC(=O)[C@@H](CCCCN)NC(=O)[C@H](Cc2ccc(O)cc2)NC(=O)[C@@H]2CCCN2[C@H](C(=O)NC(C)(C)C)[C@H](C)NC(=O)[C@H]([C@@H](C)O)N(C)C(=O)[C@H](CC(=O)O)NC1=O` [Compound 121], the “Selectivity ELISA” value is recorded as 11.4. `CC(C)C[C@@H]1NC(=O)C[C@H](CCCCN)NC(=O)CN(Cc2ccccc2)C(=O)[C@@H]2CCCN2[C@H](C(=O)NC(C)(C)C)[C@H](C)NC(=O)[C@H]([C@@H](C)O)NC(=O)[C@H](CC(=O)O)NC1=O` [Compound 296]: the “Selectivity ELISA” value was found to be 94.8.

On to `CC(C)C[C@@H]1NC(=O)[C@H](Cc2csc(-c3ccncc3)n2)NC(=O)[C@@H]2CCCN2[C@H](C(=O)NC(C)(C)C)[C@H](C)NC(=O)[C@H]([C@@H](C)O)NC(=O)[C@H](CC(=O)O)NC1=O` [Compound 97], for which the “Selectivity ELISA” value is 2.5. Next, `CC[C@H](C)[C@@H]1NC(=O)[C@H](CC(=O)O)NC(=O)[C@H](CC(C)C)NC(=O)C[C@H](CCCCN)NC(=O)[C@@H](Cc2ccc(CN)cc2)NC(=O)[C@@H]2CCCN2[C@H](C(=O)NC(C)(C)C)[C@H](C)NC1=O` [Compound 253]: 15.6. Next, `CC(C)C[C@@H]1NC(=O)[C@H]2CCCCN2C(=O)[C@H](Cc2ccc(-c3ccccc3)cc2)NC(=O)[C@@H]2CCCN2[C@H](C(=O)NC(C)(C)C)[C@H](C)NC(=O)[C@H]([C@@H](C)O)NC(=O)[C@H](CC(=O)O)NC1=O` [Compound 138]: 5.0. Next, `CC(C)C[C@@H]1NC(=O)CNC(=O)[C@H](Cc2ccc(CN)cc2)NC(=O)[C@@H]2CCCN2[C@H](C(=O)NC(C)(C)C)[C@H](C)NC(=O)[C@H]([C@@H](C)O)NC(=O)[C@H](CC(=O)O)NC1=O` [Compound 165]: 22.8; `CC(C)C[C@@H]1NC(=O)[C@H](Cc2ccc(-c3ccccc3)cc2)NC(=O)[C@@H]2C[C@@H](F)CN2[C@H](C(=O)NC(C)(C)C)[C@H](C)NC(=O)[C@H]([C@@H](C)O)NC(=O)[C@H](CC(=O)O)NC1=O` [Compound 46]: 2.4; `CC(C)C[C@@H]1NC(=O)c2ccc(-c3cccc(CN)c3)c(c2)CNC(=O)[C@@H]2CCCN2[C@H](C(=O)NC(C)(C)C)[C@H](C)NC(=O)[C@H]([C@@H](C)O)NC(=O)[C@H](CC(=O)O)NC1=O` [Compound 382]: 2.0.

For `CC(C)C[C@@H]1NC(=O)C[C@H](CCCCN)NC(=O)[C@H](CC2CCCCC2)NC(=O)[C@@H]2CCCN2[C@H](C(=O)NC(C)(C)C)[C@H](C)NC(=O)[C@H]([C@@H](C)O)NC(=O)[C@H](CC(=O)O)NC1=O` [Compound 210], the “Selectivity ELISA” value turned out to be 16.0. As for `CC(C)C[C@@H]1NC(=O)CN(C)C(=O)[C@H](Cc2cccc(I)c2)NC(=O)[C@@H]2CCCN2[C@H](C(=O)NC(C)(C)C)[C@H](C)NC(=O)[C@H]([C@@H](C)O)NC(=O)[C@H](CC(=O)O)NC1=O` [Compound 106], the “Selectivity ELISA” value was 18.7. Next, `CC(C)C[C@@H]1NC(=O)[C@@H](CCCN(C)C)NC(=O)[C@@H]2CCCN2[C@H](C(=O)NC(C)(C)C)[C@H](C)NC(=O)[C@H]([C@@H](C)O)NC(=O)[C@H](CC(=O)O)NC1=O` [Compound 83]: 6.9; `CC(C)C[C@@H]1NC(=O)[C@@H]2CCN2C(=O)C[C@H](CCCCN)NC(=O)[C@@H]2CCCN2[C@H](C(=O)NC(C)(C)C)[C@H](C)NC(=O)[C@H]([C@@H](C)O)NC(=O)[C@H](CC(=O)O)NC1=O` [Compound 319]: 4.8; `CC(C)C[C@@H]1NC(=O)[C@H](CCc2ccccc2)NC(=O)[C@@H]2CCCN2[C@H](C(=O)NC(C)(C)C)[C@H](C)NC(=O)[C@H]([C@@H](C)O)NC(=O)[C@H](CC(=O)O)NC1=O` [Compound 6]: 1.9. In the case of `CC(C)C[C@@H]1NC(=O)[C@H](Cc2cccc3ccccc23)NC(=O)[C@@H]2CCCN2[C@H](C(=O)NC(C)(C)C)[C@H](C)NC(=O)[C@H]([C@@H](C)O)NC(=O)[C@H](CC(=O)O)NC1=O` [Compound 9] it was 1.7.
